The source of these data is ChEMBL document CHEMBL1944561, “Discovery and SAR exploration of a novel series of imidazo[4,5-b]pyrazin-2-ones as potent and selective mTOR kinase inhibitors” (Bioorg Med Chem Lett, 2011).

The target of test [1] is Cyclin-dependent kinase 2 (Homo sapiens) (UniProt P24941). Description: Inhibition of CDK2 assessed as activity remaining at 10 uM.
Test [2] concerns the target High affinity nerve growth factor receptor (Homo sapiens) (UniProt P04629). Description: Inhibition of TrkA assessed as activity remaining at 10 uM.
The target of test [3] is Angiopoietin-1 receptor (Homo sapiens) (UniProt Q02763). Nature of the test: Inhibition of Tie2 assessed as activity remaining at 10 uM.
Sequence of Angiopoietin-1 receptor (Homo sapiens) (Q02763 whole entry): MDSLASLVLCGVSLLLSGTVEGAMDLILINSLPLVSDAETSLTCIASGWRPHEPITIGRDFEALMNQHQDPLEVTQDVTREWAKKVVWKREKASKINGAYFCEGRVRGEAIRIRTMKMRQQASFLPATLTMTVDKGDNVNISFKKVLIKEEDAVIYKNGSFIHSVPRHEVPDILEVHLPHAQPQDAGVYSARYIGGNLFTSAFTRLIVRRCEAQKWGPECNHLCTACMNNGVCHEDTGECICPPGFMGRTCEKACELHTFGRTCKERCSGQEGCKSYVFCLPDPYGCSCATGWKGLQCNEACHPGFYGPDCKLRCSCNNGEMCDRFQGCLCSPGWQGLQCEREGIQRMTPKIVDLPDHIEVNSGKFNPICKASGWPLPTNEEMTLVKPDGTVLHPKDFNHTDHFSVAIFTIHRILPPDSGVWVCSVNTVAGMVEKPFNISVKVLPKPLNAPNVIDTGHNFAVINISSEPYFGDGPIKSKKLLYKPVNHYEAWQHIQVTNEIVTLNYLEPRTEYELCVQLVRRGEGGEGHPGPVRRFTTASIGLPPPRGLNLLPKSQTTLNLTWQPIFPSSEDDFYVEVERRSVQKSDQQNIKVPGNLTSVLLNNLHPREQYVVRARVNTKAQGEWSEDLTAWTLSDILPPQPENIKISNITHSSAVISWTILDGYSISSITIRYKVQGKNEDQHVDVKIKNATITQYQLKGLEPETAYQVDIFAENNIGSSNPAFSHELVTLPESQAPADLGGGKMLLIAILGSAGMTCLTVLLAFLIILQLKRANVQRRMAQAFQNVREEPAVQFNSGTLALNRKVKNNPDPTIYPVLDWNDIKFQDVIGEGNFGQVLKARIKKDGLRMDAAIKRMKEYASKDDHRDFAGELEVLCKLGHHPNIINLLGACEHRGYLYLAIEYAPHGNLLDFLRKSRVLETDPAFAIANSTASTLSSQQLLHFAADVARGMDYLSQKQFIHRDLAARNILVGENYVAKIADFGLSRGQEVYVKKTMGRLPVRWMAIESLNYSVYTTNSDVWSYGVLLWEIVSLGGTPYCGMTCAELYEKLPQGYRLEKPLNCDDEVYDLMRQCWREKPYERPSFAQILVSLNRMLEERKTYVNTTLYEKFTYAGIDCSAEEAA
Test [4] has as its target Misshapen-like kinase 1 (Homo sapiens) (UniProt Q8N4C8). Description: Inhibition of MINK assessed as activity remaining at 10 uM.
Test [5] deals with RAF proto-oncogene serine/threonine-protein kinase (Homo sapiens) (UniProt P04049). Description: Inhibition of cRaf assessed as activity remaining at 10 uM.
Sequence of RAF proto-oncogene serine/threonine-protein kinase (Homo sapiens) (P04049 whole entry): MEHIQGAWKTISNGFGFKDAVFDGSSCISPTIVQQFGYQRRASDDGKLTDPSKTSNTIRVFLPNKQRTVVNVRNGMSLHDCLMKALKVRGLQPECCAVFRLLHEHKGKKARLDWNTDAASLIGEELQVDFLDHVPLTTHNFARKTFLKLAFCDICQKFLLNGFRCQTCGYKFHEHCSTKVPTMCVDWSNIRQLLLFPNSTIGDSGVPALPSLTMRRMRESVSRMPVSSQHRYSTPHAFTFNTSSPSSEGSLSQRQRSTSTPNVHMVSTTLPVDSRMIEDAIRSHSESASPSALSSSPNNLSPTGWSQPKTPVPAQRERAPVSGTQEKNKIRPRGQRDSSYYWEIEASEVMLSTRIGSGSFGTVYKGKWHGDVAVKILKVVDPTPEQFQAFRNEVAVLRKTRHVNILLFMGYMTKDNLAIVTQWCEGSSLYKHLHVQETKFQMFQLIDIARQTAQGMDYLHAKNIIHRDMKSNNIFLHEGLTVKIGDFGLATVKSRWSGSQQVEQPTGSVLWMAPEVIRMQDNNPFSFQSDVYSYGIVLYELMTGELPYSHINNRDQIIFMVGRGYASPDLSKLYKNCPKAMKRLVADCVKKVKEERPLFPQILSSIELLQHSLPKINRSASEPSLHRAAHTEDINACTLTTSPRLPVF
A short description of test [6]: Inhibition of p70S6K assessed as activity remaining at 10 uM.
The target in test [7] is Rho-associated protein kinase 1 (Homo sapiens) (UniProt Q13464). Nature of the test: Inhibition of ROCK1 assessed as activity remaining at 10 uM.
Test [8] has as its target T1, Tyrosine-protein kinase receptor TYRO3 (Homo sapiens) (UniProt Q06418).
T1 sequence (whole entry): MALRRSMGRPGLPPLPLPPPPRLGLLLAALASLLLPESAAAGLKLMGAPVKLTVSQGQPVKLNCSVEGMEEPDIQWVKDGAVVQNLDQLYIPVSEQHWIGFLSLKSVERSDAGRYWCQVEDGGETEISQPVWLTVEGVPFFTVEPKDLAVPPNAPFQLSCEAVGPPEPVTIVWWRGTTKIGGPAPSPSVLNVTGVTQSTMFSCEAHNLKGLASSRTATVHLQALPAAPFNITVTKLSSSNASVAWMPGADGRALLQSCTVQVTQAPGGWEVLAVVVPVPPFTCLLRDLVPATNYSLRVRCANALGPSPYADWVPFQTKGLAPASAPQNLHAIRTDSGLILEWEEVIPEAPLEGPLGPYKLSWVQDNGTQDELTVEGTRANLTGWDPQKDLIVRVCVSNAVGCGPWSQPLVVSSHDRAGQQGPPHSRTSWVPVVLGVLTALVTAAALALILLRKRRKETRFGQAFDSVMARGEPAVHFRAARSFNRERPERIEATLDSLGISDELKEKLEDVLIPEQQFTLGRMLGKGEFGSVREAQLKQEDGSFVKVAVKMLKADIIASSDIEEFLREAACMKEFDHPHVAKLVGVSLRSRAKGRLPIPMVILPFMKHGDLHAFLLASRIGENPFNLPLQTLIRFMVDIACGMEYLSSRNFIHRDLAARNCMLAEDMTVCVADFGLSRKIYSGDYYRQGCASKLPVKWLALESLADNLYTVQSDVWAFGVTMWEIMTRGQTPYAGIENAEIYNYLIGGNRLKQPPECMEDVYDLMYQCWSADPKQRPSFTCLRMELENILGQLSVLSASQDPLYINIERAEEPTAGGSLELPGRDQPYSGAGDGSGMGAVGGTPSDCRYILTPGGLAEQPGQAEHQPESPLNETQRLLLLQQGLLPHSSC
Description: Inhibition of Rse assessed as activity remaining at 10 uM.

In test [9] the target is Proto-oncogene tyrosine-protein kinase Src (Homo sapiens) (UniProt P12931). Description: Inhibition of cSRC assessed as activity remaining at 10 uM.
For test [10], the target named is Vascular endothelial growth factor receptor 2 (Homo sapiens) (UniProt P35968). Nature of the test: Inhibition of KDR assessed as activity remaining at 10 uM.
Test [11] has as its target Serine/threonine-protein kinase mTOR (Homo sapiens, UniProt P42345). Nature of the test: Inhibition of mTOR-mediated Akt phosphorylation in human PC3 cells. Format: cell-based, PC-3.
In test [12] the target is SRSF protein kinase 3 (Homo sapiens) (UniProt Q9UPE1). Nature of the test: Inhibition of MSSK1 assessed as activity remaining at 10 uM.
Test [13] addresses Insulin receptor-related protein (Homo sapiens) (UniProt P14616). Nature of the test: Inhibition of IRR assessed as activity remaining at 10 uM.
Test [14] has as its target Protein kinase C alpha type (Homo sapiens) (UniProt P17252). Nature of the test: Inhibition of PKC-alpha assessed as activity remaining at 10 uM.
For test [15], the target named is T2, Tyrosine-protein kinase JAK3 (Homo sapiens) (UniProt P52333).
T2 sequence (whole entry): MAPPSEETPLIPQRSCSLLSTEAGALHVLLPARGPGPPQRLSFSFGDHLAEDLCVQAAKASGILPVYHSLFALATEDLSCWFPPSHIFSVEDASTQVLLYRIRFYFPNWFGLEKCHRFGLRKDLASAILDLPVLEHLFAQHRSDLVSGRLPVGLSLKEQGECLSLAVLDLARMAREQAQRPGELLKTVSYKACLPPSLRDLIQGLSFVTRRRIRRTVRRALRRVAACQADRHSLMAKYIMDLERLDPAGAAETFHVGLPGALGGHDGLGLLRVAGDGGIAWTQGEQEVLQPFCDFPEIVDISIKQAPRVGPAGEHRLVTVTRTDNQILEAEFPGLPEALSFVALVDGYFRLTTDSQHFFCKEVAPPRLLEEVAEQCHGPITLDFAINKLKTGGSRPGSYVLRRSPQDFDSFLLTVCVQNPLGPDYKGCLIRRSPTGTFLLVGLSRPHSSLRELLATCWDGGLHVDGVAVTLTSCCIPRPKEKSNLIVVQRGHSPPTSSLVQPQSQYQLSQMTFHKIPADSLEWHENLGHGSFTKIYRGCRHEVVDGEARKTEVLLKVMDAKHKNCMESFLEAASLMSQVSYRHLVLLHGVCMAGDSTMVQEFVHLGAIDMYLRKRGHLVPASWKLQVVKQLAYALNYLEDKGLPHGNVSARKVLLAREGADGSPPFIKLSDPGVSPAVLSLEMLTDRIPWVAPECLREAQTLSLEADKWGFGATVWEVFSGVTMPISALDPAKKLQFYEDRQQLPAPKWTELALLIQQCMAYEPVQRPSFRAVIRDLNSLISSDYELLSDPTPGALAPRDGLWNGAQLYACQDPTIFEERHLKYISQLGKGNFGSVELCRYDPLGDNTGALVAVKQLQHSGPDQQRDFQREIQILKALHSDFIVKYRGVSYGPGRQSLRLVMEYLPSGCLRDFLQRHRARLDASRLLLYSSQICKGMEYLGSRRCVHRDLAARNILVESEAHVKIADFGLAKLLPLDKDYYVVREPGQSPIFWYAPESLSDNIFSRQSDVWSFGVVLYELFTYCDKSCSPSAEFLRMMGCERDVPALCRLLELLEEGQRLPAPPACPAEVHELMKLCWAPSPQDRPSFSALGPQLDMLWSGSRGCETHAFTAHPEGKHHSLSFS
Nature of the test: Inhibition of JAK3 assessed as activity remaining at 10 uM.

Test [16] deals with 3-phosphoinositide-dependent protein kinase 1 (Homo sapiens) (UniProt O15530). Description: Inhibition of PDK1 assessed as activity remaining at 10 uM.
In test [17] the target is Epidermal growth factor receptor (Homo sapiens) (UniProt P00533). Description: Inhibition of EGFR assessed as activity remaining at 10 uM.
Sequence of Epidermal growth factor receptor (Homo sapiens) (P00533 whole entry): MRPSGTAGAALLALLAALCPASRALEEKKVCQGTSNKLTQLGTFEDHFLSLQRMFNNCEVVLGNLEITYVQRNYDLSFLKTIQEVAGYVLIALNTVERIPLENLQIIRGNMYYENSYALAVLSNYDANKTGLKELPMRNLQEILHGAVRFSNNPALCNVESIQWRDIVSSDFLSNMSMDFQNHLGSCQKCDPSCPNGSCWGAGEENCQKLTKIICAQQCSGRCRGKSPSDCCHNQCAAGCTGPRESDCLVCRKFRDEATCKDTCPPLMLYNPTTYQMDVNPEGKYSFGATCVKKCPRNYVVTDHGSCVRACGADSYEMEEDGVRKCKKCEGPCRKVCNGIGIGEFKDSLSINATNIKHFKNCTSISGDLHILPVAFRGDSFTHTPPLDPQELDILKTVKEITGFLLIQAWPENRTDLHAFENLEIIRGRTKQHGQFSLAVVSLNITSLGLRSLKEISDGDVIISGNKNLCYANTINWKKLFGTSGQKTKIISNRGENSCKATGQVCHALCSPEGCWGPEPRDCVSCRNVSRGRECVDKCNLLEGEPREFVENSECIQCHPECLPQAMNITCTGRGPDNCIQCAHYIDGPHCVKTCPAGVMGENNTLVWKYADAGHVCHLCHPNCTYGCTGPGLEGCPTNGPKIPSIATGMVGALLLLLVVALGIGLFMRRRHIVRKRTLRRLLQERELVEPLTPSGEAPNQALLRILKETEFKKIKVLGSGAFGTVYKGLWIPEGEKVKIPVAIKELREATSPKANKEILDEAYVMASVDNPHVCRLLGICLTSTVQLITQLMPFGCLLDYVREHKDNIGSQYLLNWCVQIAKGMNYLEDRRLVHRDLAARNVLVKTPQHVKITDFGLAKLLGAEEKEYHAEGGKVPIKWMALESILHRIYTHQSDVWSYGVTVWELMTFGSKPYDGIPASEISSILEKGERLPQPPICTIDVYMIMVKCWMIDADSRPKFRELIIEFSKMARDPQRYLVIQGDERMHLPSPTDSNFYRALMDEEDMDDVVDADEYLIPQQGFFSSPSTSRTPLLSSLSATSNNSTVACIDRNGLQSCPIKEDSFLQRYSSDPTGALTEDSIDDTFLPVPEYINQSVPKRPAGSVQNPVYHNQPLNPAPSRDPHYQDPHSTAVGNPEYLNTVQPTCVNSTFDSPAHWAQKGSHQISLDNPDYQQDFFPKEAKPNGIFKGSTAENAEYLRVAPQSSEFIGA

Sequence of Misshapen-like kinase 1 (Homo sapiens) (Q8N4C8 whole entry, looked up): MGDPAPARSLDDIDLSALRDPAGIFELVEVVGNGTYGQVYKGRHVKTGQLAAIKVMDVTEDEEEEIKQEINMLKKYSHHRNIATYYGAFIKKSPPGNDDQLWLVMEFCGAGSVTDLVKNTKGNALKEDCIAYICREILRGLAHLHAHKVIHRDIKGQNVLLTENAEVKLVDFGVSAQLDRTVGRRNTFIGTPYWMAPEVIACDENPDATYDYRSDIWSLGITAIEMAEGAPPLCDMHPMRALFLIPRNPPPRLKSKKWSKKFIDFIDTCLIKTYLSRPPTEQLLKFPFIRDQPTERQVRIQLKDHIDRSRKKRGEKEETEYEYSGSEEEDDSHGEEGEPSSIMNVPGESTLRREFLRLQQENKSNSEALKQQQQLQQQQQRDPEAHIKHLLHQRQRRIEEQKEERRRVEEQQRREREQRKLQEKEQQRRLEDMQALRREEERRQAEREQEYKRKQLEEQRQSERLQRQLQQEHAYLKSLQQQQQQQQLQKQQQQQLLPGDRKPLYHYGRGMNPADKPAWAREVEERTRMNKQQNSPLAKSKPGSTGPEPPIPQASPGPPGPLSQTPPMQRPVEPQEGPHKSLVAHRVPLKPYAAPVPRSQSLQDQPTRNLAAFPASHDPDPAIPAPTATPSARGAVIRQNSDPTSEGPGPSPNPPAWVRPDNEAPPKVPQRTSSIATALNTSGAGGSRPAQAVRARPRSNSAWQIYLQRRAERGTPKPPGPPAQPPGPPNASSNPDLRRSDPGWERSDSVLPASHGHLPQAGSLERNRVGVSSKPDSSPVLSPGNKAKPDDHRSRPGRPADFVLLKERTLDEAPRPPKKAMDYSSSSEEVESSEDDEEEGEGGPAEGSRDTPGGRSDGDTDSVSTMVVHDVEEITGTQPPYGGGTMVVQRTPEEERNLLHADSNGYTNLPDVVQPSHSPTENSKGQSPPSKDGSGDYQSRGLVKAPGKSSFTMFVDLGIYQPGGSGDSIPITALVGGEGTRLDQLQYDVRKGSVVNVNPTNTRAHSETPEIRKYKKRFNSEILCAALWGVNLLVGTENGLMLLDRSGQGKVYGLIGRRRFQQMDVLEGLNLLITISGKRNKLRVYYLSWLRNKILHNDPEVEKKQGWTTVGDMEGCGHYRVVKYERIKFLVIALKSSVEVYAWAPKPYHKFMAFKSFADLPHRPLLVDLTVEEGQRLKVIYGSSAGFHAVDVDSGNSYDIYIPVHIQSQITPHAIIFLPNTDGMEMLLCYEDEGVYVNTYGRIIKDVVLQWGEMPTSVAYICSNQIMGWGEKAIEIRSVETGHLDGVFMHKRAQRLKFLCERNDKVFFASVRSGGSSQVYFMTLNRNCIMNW

A word on the IC50: it is the concentration at which inhibition is half-maximal. Read a high IC50 as weaker potency in that assay. For the molecule `CC(C)(O)c1ccc(-c2cnc3[nH]c(=O)n(CC4CCCCC4)c3n2)cc1`, the Activity turned out to be 81% in [1]; 86% in test [2]; 85% in test [3]; 83% in test [4]; 87% in test [5]; 99% in test [6]. The Activity in [7] was 97%; in [8], 74%; in [9] it was 73%; in test [10], 83%; in [12] it was 89%; in test [13], 89%. The Activity in test [14] was 83%; in test [15], 101%; in test [16] it was 92%; in test [17] it was 98%. The molecule further registered a half-inhibitory concentration (IC50) in test [11] of 322 nM.
Consider `O=c1[nH]c2ncc(-c3ccc(-c4nc[nH]n4)cc3)nc2n1CC1CCOCC1`, for which the Activity was 90% in [1]; 77% in test [2]; 86% in [3]; 92% in test [4]; 70% in test [5]; 96% in test [6]. Besides, the Activity in [7] is 96%; in test [8], 86%; in test [9], 92%; in [10], 88%; in [12], 93%; in [13] it was 90%. Also, the Activity was 86% in test [14], 96% in test [15], 91% in [16] and 88% in test [17]. Besides, 150 nM corresponded to half-maximal inhibition in test [11] (IC50).
As for `O=c1[nH]c2ncc(-c3ccc4[nH]cnc4c3)nc2n1CC1CCCCC1`, the Activity in [1] is 81%; in test [2], 61%; in test [3], 83%; in test [4], 42%; in test [5], 84%; in test [6], 86%. Moreover, the Activity amounted to 96% in [7]; 88% in [8]; 63% in test [9]; 62% in test [10]; 91% in [12]; 92% in test [13]. Also, the Activity in [14] is 82%; in test [15] it was 95%; in test [16], 65%; in [17], 87%. This molecule yielded a half-maximal inhibitory concentration (IC50) in [11] of 137 nM.
